Reference: the supplement of paper PMC11061612

Columns and labels:
Test in all cases: combination Emax (second highest fraction inhibited in the dose matrix, 72 h); higher = more inhibition; extreme values may be limits of the assay
[1] = test system: SW872 (Other Solid Carcinomas)
Method in brief: (§1)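 Bliss excess equals the observed combination effect minus the expected value EA + EB − EA·EB, where EA and EB are the effects of each agent alone. Combination Emax is the second-highest inhibition within the matrix. Inhibition was scaled from CellTiter-Glo 2.0 luminescence, with 0 set by vehicle wells and 1 by blank wells, after 72 hours of two-drug dosing of cells plated in 1536-well plates.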

[2] = test system: LC-1-sq (Squamous Cell Lung Carcinoma)
Method in brief: as §1

[3] = test system: SKN (Other Solid Carcinomas)
Method in brief: as §1

[4] = test system: MOG-G-UVW (Low Grade Glioma)
Method in brief: as §1

SMILES | combination Emax [1] | combination Emax [2] | combination Emax [3] | combination Emax [4]
COc1nnc2ccc(N3CCC(c4ccc(OCCN5CCN(C)C(=O)[C@H]5C)cc4)CC3)nn12 [AZD5153] + Cc1c2c(nn1C)CSCc1cc(n(C)n1)CSc1cc(c3ccccc3c1)OCCCc1c(C(=O)O)n(C)c3c-2c(Cl)ccc13 [AZD5991] (first compound max 1 µM, 7x7, partner max 1 µM) | 0.697 | 0.771 | 0.568 | 0.763
Cc1c2c(nn1C)CSCc1cc(n(C)n1)CSc1cc(c3ccccc3c1)OCCCc1c(C(=O)O)n(C)c3c-2c(Cl)ccc13 [AZD5991] + Cc1cc2ncnn2cc1Nc1ncc2c(n1)n(C1CCOCC1)c(=O)n2C [AZD7648] (first compound max 1 µM, 7x7, partner max 10 µM) | 0.258 | 0.269 | 0.305 | 0.271
Cc1c2c(nn1C)CSCc1cc(n(C)n1)CSc1cc(c3ccccc3c1)OCCCc1c(C(=O)O)n(C)c3c-2c(Cl)ccc13 [AZD5991] + C=CCn1c(=O)c2cnc(Nc3ccc(N4CCN(C)CC4)cc3)nc2n1-c1cccc(C(C)(C)O)n1 [AZD1775] (first compound max 1 µM, partner max 1 µM) | 0.374 | 0.851 | 0.436 | 0.761
Cc1c2c(nn1C)CSCc1cc(n(C)n1)CSc1cc(c3ccccc3c1)OCCCc1c(C(=O)O)n(C)c3c-2c(Cl)ccc13 [AZD5991] + C[C@@H]1COCCN1C2=NC(=NC(=C2)C3(CC3)[S@](=N)(=O)C)C4=C5C=CNC5=NC=C4 [AZD6738] (first compound max 1 µM, 7x7, partner max 10 µM) | 0.547 | 0.845 | 0.42 | 0.756
COc1cccc(OCCCN)c1-c1cc(Nc2cnc(C#N)cn2)n[nH]1 [Prexasertib] + CCc1c2c(nc3ccc(O)cc13)-c1cc3c(c(=O)n1C2)COC(=O)[C@]3(O)CC [SN-38] (first compound max 1 µM, 7x7, partner max 0.3 µM) | 1 | 0.889 | 0.803 | 0.987
CCN(CCO)CCCOc1ccc2c(Nc3cc(CC(=O)Nc4cccc(F)c4)[nH]n3)ncnc2c1 [AZD2811] + C[C@@H]1COCCN1C2=NC(=NC(=C2)C3(CC3)[S@](=N)(=O)C)C4=C5C=CNC5=NC=C4 [AZD6738] (first compound max 1 µM, 7x7, partner max 10 µM) | 0.571 | 0.823 | 0.393 | 0.783
CCN(CCO)CCCOc1ccc2c(Nc3cc(CC(=O)Nc4cccc(F)c4)[nH]n3)ncnc2c1 [AZD2811] + O=C(c1cc(Cc2n[nH]c(=O)c3ccccc23)ccc1F)N1CCN(C(=O)C2CC2)CC1 [Olaparib] (first compound max 1 µM, 7x7, partner max 10 µM) | 0.172 | 0.305 | 0.127 | 0.668
CN(C)CCCOc1ccc(-c2ccc3ncc4c(c3c2)n(C2CCOCC2)c(=O)n4C)cn1 [AZD0156] + C=CCn1c(=O)c2cnc(Nc3ccc(N4CCN(C)CC4)cc3)nc2n1-c1cccc(C(C)(C)O)n1 [AZD1775] (first compound max 1 µM, partner max 1 µM) | 0.267 | 0.91 | 0.336 | 0.744
Cc1c2c(nn1C)CSCc1cc(n(C)n1)CSc1cc(c3ccccc3c1)OCCCc1c(C(=O)O)n(C)c3c-2c(Cl)ccc13 [AZD5991] + CCN(CCO)CCCOc1ccc2c(Nc3cc(CC(=O)Nc4cccc(F)c4)[nH]n3)ncnc2c1 [AZD2811] (first compound max 1 µM, 7x7, partner max 1 µM) | 0.249 | 0.428 | 0.204 | 0.696
COc1cccc2c1C(=O)c1c(O)c3c(c(O)c1C2=O)C[C@@](O)(C(=O)CO)C[C@@H]3O[C@H]1C[C@H](N)[C@H](O)[C@H](C)O1 [Doxorubicin] + Cc1cc2ncnn2cc1Nc1ncc2c(n1)n(C1CCOCC1)c(=O)n2C [AZD7648] (first compound max 1 µM, 7x7, partner max 10 µM) | 0.811 | 0.727 | 0.779 | 0.867
NC1(C(=O)N[C@@H](CCO)c2ccc(Cl)cc2)CCN(c2ncnc3[nH]ccc23)CC1 [Capivasertib] + Cn1cnc2c(F)c(Nc3ccc(Br)cc3Cl)c(C(=O)NOCCO)cc21 [Selumetinib] (first compound max 10 µM, 7x7, partner max 10 µM) | 0.449 | 0.34 | 0.594 | 0.714
COc1cccc(OCCCN)c1-c1cc(Nc2cnc(C#N)cn2)n[nH]1 [Prexasertib] + CN(C)CCCOc1ccc(-c2ccc3ncc4c(c3c2)n(C2CCOCC2)c(=O)n4C)cn1 [AZD0156] (first compound max 1 µM, 7x7, partner max 1 µM) | 0.863 | 0.953 | 0.421 | 0.88
NC1(C(=O)N[C@@H](CCO)c2ccc(Cl)cc2)CCN(c2ncnc3[nH]ccc23)CC1 [Capivasertib] + CC(C)n1c(=O)n(C)c2cnc3cc(F)c(-c4ccc(OCCCN5CCCCC5)nc4)cc3c21 [AZD1390] (first compound max 10 µM, 7x7, partner max 0.3 µM) | 0.342 | 0.253 | 0.516 | 0.576
CCc1c2c(nc3ccc(O)cc13)-c1cc3c(c(=O)n1C2)COC(=O)[C@]3(O)CC [SN-38] + O=C(c1cc(Cc2n[nH]c(=O)c3ccccc23)ccc1F)N1CCN(C(=O)C2CC2)CC1 [Olaparib] (first compound max 0.3 µM, 7x7, partner max 10 µM) | 1 | 0.455 | 0.596 | 0.825
Cn1cnc2c(F)c(Nc3ccc(Br)cc3Cl)c(C(=O)NOCCO)cc21 [Selumetinib] + C=CCn1c(=O)c2cnc(Nc3ccc(N4CCN(C)CC4)cc3)nc2n1-c1cccc(C(C)(C)O)n1 [AZD1775] (first compound max 10 µM, partner max 1 µM) | 0.29 | 0.696 | 0.353 | 0.72
Cc1c2c(nn1C)CSCc1cc(n(C)n1)CSc1cc(c3ccccc3c1)OCCCc1c(C(=O)O)n(C)c3c-2c(Cl)ccc13 [AZD5991] + C[C@@H](Nc1cc(F)cc(F)c1)c1cc(C(=O)N(C)C)cc2c(=O)cc(N3CCOCC3)oc12 [AZD8186] (first compound max 1 µM, 7x7, partner max 3 µM) | 0.321 | 0.24 | 0.532 | 0.512
CC1(C)CCC(CN2CCN(c3ccc(C(=O)NS(=O)(=O)c4ccc(NCC5CCOCC5)c([N+](=O)[O-])c4)c(Oc4cnc5[nH]ccc5c4)c3)CC2)=C(c2ccc(Cl)cc2)C1 [Venetoclax] + C[C@@H]1COCCN1C2=NC(=NC(=C2)C3(CC3)[S@](=N)(=O)C)C4=C5C=CNC5=NC=C4 [AZD6738] (first compound max 1 µM, 7x7, partner max 10 µM) | 0.459 | 0.672 | 0.491 | 0.852
C=CCn1c(=O)c2cnc(Nc3ccc(N4CCN(C)CC4)cc3)nc2n1-c1cccc(C(C)(C)O)n1 [AZD1775] + C[C@@H]1COCCN1C2=NC(=NC(=C2)C3(CC3)[S@](=N)(=O)C)C4=C5C=CNC5=NC=C4 [AZD6738] (first compound max 1 µM, partner max 10 µM) | 0.83 | 0.938 | 0.506 | 0.922
CC(=O)c1c(C)c2cnc(Nc3ccc(N4CCNCC4)cn3)nc2n(C2CCCC2)c1=O [Palbociclib] + CC1(C)CCC(CN2CCN(c3ccc(C(=O)NS(=O)(=O)c4ccc(NCC5CCOCC5)c([N+](=O)[O-])c4)c(Oc4cnc5[nH]ccc5c4)c3)CC2)=C(c2ccc(Cl)cc2)C1 [Venetoclax] (first compound max 10 µM, 7x7, partner max 1 µM) | 0.0843 | 0.166 | 0.342 | 0.497
C=CCn1c(=O)c2cnc(Nc3ccc(N4CCN(C)CC4)cc3)nc2n1-c1cccc(C(C)(C)O)n1 [AZD1775] + O=C(c1cc(Cc2n[nH]c(=O)c3ccccc23)ccc1F)N1CCN(C(=O)C2CC2)CC1 [Olaparib] (first compound max 1 µM, partner max 10 µM) | 0.336 | 0.901 | 0.412 | 0.864
CC1(C)CCC(CN2CCN(c3ccc(C(=O)NS(=O)(=O)c4ccc(NCC5CCOCC5)c([N+](=O)[O-])c4)c(Oc4cnc5[nH]ccc5c4)c3)CC2)=C(c2ccc(Cl)cc2)C1 [Venetoclax] + Cn1cnc2c(F)c(Nc3ccc(Br)cc3Cl)c(C(=O)NOCCO)cc21 [Selumetinib] (first compound max 1 µM, 7x7, partner max 3 µM) | 0.105 | 0.236 | 0.136 | 0.413
COc1nnc2ccc(N3CCC(c4ccc(OCCN5CCN(C)C(=O)[C@H]5C)cc4)CC3)nn12 [AZD5153] + C[C@@H]1COCCN1C2=NC(=NC(=C2)C3(CC3)[S@](=N)(=O)C)C4=C5C=CNC5=NC=C4 [AZD6738] (first compound max 1 µM, 7x7, partner max 10 µM) | 0.634 | 0.783 | 0.71 | 0.769
CC1(C)CCC(CN2CCN(c3ccc(C(=O)NS(=O)(=O)c4ccc(NCC5CCOCC5)c([N+](=O)[O-])c4)c(Oc4cnc5[nH]ccc5c4)c3)CC2)=C(c2ccc(Cl)cc2)C1 [Venetoclax] + C=CCn1c(=O)c2cnc(Nc3ccc(N4CCN(C)CC4)cc3)nc2n1-c1cccc(C(C)(C)O)n1 [AZD1775] (first compound max 1 µM, partner max 1 µM) | 0.557 | 0.689 | 0.556 | 0.933
COc1nnc2ccc(N3CCC(c4ccc(OCCN5CCN(C)C(=O)[C@H]5C)cc4)CC3)nn12 [AZD5153] + Cn1cnc2c(F)c(Nc3ccc(Br)cc3Cl)c(C(=O)NOCCO)cc21 [Selumetinib] (first compound max 1 µM, 7x7, partner max 10 µM) | 0.784 | 0.677 | 0.65 | 0.658
CC1(C)CCC(CN2CCN(c3ccc(C(=O)NS(=O)(=O)c4ccc(NCC5CCOCC5)c([N+](=O)[O-])c4)c(Oc4cnc5[nH]ccc5c4)c3)CC2)=C(c2ccc(Cl)cc2)C1 [Venetoclax] + COc1cc(Nc2ncc3c(n2)-c2ccc(Cl)cc2C(c2c(F)cccc2OC)=NC3)ccc1C(=O)O [Alisertib] (first compound max 1 µM, 7x7, partner max 10 µM) | 0.265 | 0.275 | 0.577 | 0.722
